The record followed here is EP0462621A2, “Use of particular compounds for manufacture of pharmaceutical formulations for treatment against various parasites, mycoplasmas, other indications and other infections” (Prendergast, Patrick Thomas, priority 1990, dated 1991).

Read-outs that look alike come from different tables or passages of the source.

In one data set the test system is Enterocytozoon bieneusi. The data set can be described thus: Clinical evaluation of AIDS patients with chronic diarrhoea treated with IPA (stool examinations, endoscopic biopsies). Particulars: E. bieneusi identified prior to treatment. The class given is in vivo. The source says:
Chronic diarrhoea accompanied by wasting is one of the most frequent problems associated with HIV infection. […] A new genera and species of microspora, Enterocytozoon bieneusi, was identified in ultrastructural studies of intestinal biopsies from AIDS patients with unexplained chronic diarrhoea prior to treatment with IPA.
E. bieneusi microsporidiosis (intestinal microsporidiosis) is diagnosed with increasing frequency in AIDS patients with chronic diarrhoea of unknown origin. Forty-seven cases have been reported in the United States, Africa and Europe. […] Until now, diagnosis depended upon light and electron microscopy studies of small bowel biopsies, particularly of the jejunum. Diagnosis is suspected on histological findings either on Giemsa-stained smears and/or hematoxylin-eosin or Giemsa-stained paraffin sections: identification of oval parasites measuring 2-9 u.m and clusters of refractile spores (1-1.5 u.m) in villous enterocytes from just above the mouth of the crypts to the tips of the villi. These organisms are located in the supranuclear position of the cytoplasm. […] Recently reported recovery of spores from faeces, would simplify diagnosis. Unlike other species of microspora, E. bieneusi has not been identified from different organs such as brain and kidney. A proportion of transient diarrhoeas of unknown etiology in AIDS patients may be related to E. bieneusi. […]

Another data set has as its system H9-HIV-1 cells. The data set can be described thus: Cytotoxicity in persistently infected H9-HIV-1 cells, viable cell number. It counts as cell-based, human. The following applies: 30 u.M and lower; up to 30 days.
The next data set deals with human mononuclear cells. The data set can be described thus: Mixed leukocyte culture (MLC) reaction. It counts as cell-based. How it is done:
T and B lymphocytes from normal human donors were incubated for 30 minutes at various dose levels of the compounds indicated. The lymphocytes were added in triplicate wells in gentamicin and phytohemagglutinin (PHA) (a T cell mitogen), pokeweed mitogen (PWM) (a B cell mitogen) and allogeneic mononuclear cells (mixed leukocyte cultures; MLC) or media containing the above additives. The lymphocyte blastogenesis assay is described in detail below.
Mixed leukocyte culture (MLC) reactions may be used to evaluate the ability of human mononuclear cells to recognize and immunologically react to human histocompatibility antigen (measurement of the ability of the cells to mount a primary immune response to an antigen). Cultures of one set of human mononuclear cells were reacted with mononuclear cells from an unrelated donor in lymphocyte blastogenesis assays and the proliferation of the first set of cells was quantitated. The results are presented in Charts la(e) (v) and la(e) (vi) (Figs. 5 and 6). Again, as with lymphocyte blastogenesis with mitogens, the MLC was run in replicates of three and a mean value obtained.
• 1. Mononuclear cells are separated from whole blood by differential centrifugation using a synthetic separation medium, or are thawed from a cryopreserved preparation. The cells are washed and resuspended in media (RPMI - 1640, L-Glutamine 2mM, Herpes Buffer 25mM, Gentamicin 50 ug/ml, Human AB Serum-heat inactivated (56°, 30°) 20%). • 2. A viable cell count is determined. • 3. Cell concentration is adjusted to 2 x 10^6 /ml in media. • 4. The cell suspension is added to wells of a 96-well flat bottom plate in 0.1 ml aliquots (2 x 10^5 cells). • 5. The selected mitogens and/or antigens (in media without serum) are added to the cells in the wells also in 0.1 ml aliquots. • 6. The cultures are incubated for 3-7 days (depending upon the mitogen or antigen) at 37° C in a humidified 5% C02 atmosphere. • 7. […] The vials are counted in a liquid scintillation counter for one minute where the amount of incorporated ^3HTdR is determined.

For another data set, the system named is HIV-1. In words: Experiment la(b): H9 cells, HIV-1, antibody assay. It counts as cell-based. The following applies: Human immunodeficiency virus 1. The method, then: Fresh macrophage cultures were obtained by incubation of mononuclear cells obtained from a leukopak directly in the wells of a microtiter plate having 6 wells per row. After removal of non-adherent cells, each row of the adherent macrophages was infected with 10-fold serial dilutions of HIV-I, with the use of polybrene to enhance uptake of the virus. After one to two hours, the virus inoculum was removed and replaced with fresh normal growth medium. The fresh medium for each row contained a particular concentration of AZT, dideoxy cytidine (ddC), or compound la, as indicated by the left-hand column of Table la(a). The first row of wells acted as a control, and to it was added fresh medium containing none of the three drugs. Medium levels were maintained for two to four weeks to allow replication of the virus to take place, with at least one complete fluid change to remove residual virus inoculum. The contents of each well were then tested for the level of HIV p24 antigen present using a commercially available antigen capture kit employing a radio-immunoassay which can detect as little as 10'^9gm of p24 present in a sample. The above procedure was done in duplicate runs.
A procedure similar to that followed in Experiment la(a) was followed using infected H9 cells, H9 cells being a permanent human T-cell line.
A procedure similar to that followed in Experiment la(a) was followed using infected H9 cells, being a permanent human T-cell line.

In another data set the test system is H9 cells. The data set can be described thus: Cytotoxicity on uninfected H9 cells, 10 days continuous exposure. The following applies: read-out: ID50 - The concentration of IPA which kills 50% of the cells. The class given is cell-based, human. The method, then: (§1) The "Percent Dead Cells" are taken from Tables la(d) (iii) and la(d) (v) using the 10-day value, and the therapeutic index have been calculated for each drug concentration. The results of IPA are also graphed in Figures 16 and 17. Cytotoxicity (the dashed line) is calculated as the percent live cells.
(§2) The availability of toxicity data collected in the same time frame as required for determination of antiviral effectiveness allowed determination of values for two different cell lines. Figures 16 and 17 illustrate the curves obtained by plotting the cytotoxicity of IPA (as a percent of the control cell viability) versus the percent of inhibition of HIV-1 replication (as a percent of the control titer) when H9 and 81-66-45 cells were tested. The cytotoxicity data obtained with 10 days continuous exposure, using uninfected cells, were used since 10 days was the length of time required to carry out the infectivity test. As is apparent from Tables la-(d) (ii) - la(d) (v), toxicity is much lower when the drug is added to cells for one day and then removed, or when cells are exposed for only 1 or 4 days. It is difficult to mimic in-vivo exposure times, particularly if metabolites are more toxic than the parent compound and are readily cleared in-vivo but not in-vitro.

The subject of a further data set is HIV-I. The data set can be described thus: Experiment la(a): macrophage cells, HIV-I, p24 antigen capture radio-immunoassay. The class given is cell-based. The following applies: Human immunodeficiency virus 1, Monocyte; Monocytes; HIV-1; as read from Figure 15.
The subject of a further data set is 81-66-45 Cells. In words: Cytotoxicity on uninfected 81-66-45 cells, 10 days continuous exposure. It counts as cell-based. The following applies: read-out: ID50 - The concentration of IPA which kills 50% of the cells. How it is done:
as §1, §2

With `CC(C)=CCNc1ncnc2c1ncn2[C@@H]1O[C@H](CO)[C@@H](O)[C@H]1O` [IPA, N^6-(Δ^2-isopentenyl) adenosine], in the data set with Enterocytozoon bieneusi, the “pathogen found on clinical evaluation” value is given as “fails to identify any pathogen”. Moreover, the “cytotoxicity, viable cell number” value with H9-HIV-1 cells is reported as “No cytotoxicity”. Further, the “reduction in MLC reactivity” value with human mononuclear cells (1 µM) is on record as 50%. Besides, the MLC reactivity result in the data set on human mononuclear cells (10 µM) is recorded as “No effect”; in the data set on human mononuclear cells (100 u.M) it was “slight increase”. The IC50 in the data set with HIV-1 (H9, HIV-1, as read from Figure 15, read-out: IC50) was 2 µM; with HIV-1 (H9 Cells, from Figures 16 and 17, read-out: IC50 - The concentration of IPA which inhibits the replication of HIV-1 by 50%), 6 µM; with HIV-I it was 6 µM. Besides, the IC90 in the data set on HIV-1 (H9, HIV-1, as read from Figure 15, read-out: IC90) turned out to be 3 µM; with HIV-1 (H9 Cells, from Figures 16 and 17, read-out: IC90 - The concentration of IPA which inhibits the replication of HIV-1 by 90%), 10 µM; in the data set on HIV-I, 10 µM. The CC50 turned out to be 50 µM with H9 cells and 40 µM with 81-66-45 Cells.
